The source of these data is patent publication US20180179198A1, “TRICYCLIC MODULATORS OF TNF SIGNALING” (AbbVie Inc., priority 2015, published 2018).

The target in the test is TNFα trimer (Homo sapiens, UniProt P01375). The experiment in a line: TNFα FP Competitive Binding Assay. Conditions: TNFα FP competitive binding assay; class symbols A/B/C; read-out: TNF IC50. How it is done: TNFα FP Competitive Binding Assay
• 1. Assay Buffer: Prepare 1× Assay Buffer (Water with 47 mM HEPES, 47 mM NaCl, 0.9 mM EDTA, 0.0071% Triton X-100) by adding 25 mL of 1 M HEPES, 5 mL of 5 M NaCl, 1 mL of 0.5 M EDTA, and 375 μL of a 10% Triton X-100 stock to a fresh 500 mL bottle of water. • 2. Assay Mixture: Prepare fresh Assay Mixture containing 20 nM TNFα trimer (60 nM protein) and 1 nM 2′,7′-difluoro-3′,6′-dihydroxy-N-(2-(2-(2-((4-(isoquinolin-8-yl)-3-(4-(isoquinolin-8-yl)phenethoxy)benzyl)oxy)ethoxy)ethoxy)ethyl)-3-oxo-3H-spiro[isobenzofuran-1,9′-xanthene]-5-carboxamide probe in 1× Assay Buffer.
Compound Plate Preparation
Manual 12-point 1:3 Dilution Plates: (384 well polypropylene plates)
Top concentration of compounds, 10 mM in DMSO, dispensed in rows A-O in columns 1 and 13. Compounds are serially diluted 1:3 with DMSO in columns 2-12 or 14-24 using a 16-channel Matrix pipettor. Plates stored at −20° C.
Discovery Preps 12-point 1:3 Dilution Plates: (384 well assay plates)
Top concentration, 5 mM in DMSO, of compounds placed in rows A-O in columns 1 and 13. Compounds are serially diluted 1:3 with DMSO in columns 2-12 or 14-24. Compound solutions are dispensed into replicate assay plates at 410 nL per well. Plates stored at 4° C.
TNFα FP Competitive Binding Assay Protocol
• 1. Compound plates are warmed to rt. • 2. Fresh Assay Mixture is prepared. • 3. Assay Mixture (20 μL) is dispensed each well of 384 assay plates using a Thermo Multidrop Combi or 16-channel Matrix pipettor. If Manual 12-point 1:3 Dilution Plates are to be tested, Assay Mix is dispensed into empty plates. Discovery Preps 12-point 1:3 Dilution Plates already contain 410 nL compound solution in DMSO. • 4. For Manual 12-point 1:3 Dilution Plates, 0.7 μL is manually transferred using a 16-channel Matrix pipettor to replicate assay plates containing 20 μL Assay Mixture for a final top compound concentration of 338 μM (3.4% DMSO). • 5. For Discovery Preps 12-point 1:3 Dilution Plates, 20 μL Assay Mixture added the 410 nL compound solution already in the plates yields a final top compound concentration of 100 μM (2.0% DMSO). • 6. Background subtraction controls are wells P1-P8 containing only Assay Buffer. The low % inhibition controls are wells P9-P16 containing only Assay Mix. The high % inhibition are wells P17-P24 containing only 1 nM 2′,7′-difluoro-3′,6′-dihydroxy-N-(2-(2-(2-((4-(isoquinolin-8-yl)-3-(4-(isoquinolin-8-yl)phenethoxy)benzyl)oxy)ethoxy)ethoxy)ethyl)-3-oxo-3H-spiro[isobenzofuran-1,9′-xanthene]-5-carboxamide probe in 1× Assay Buffer. • 7. Plates are incubated at […] for 18-24 h in 37° C. incubator (CO2 is off). • 8. Prior to reading the assay, the plates are placed in a dark cabinet to equilibrate at rt for one hour. • 9. Background-subtracted fluorescence polarization (mP) is measured using a PerkinElmer Envision plate reader. • 10. Raw data is entered into Assay Explorer and dose-response curves are generated using a variable slope curve.

A value given as a limit tells only on which side of the number the result lay.

Chain of TNFα trimer (P01375 77-233 limits assumed): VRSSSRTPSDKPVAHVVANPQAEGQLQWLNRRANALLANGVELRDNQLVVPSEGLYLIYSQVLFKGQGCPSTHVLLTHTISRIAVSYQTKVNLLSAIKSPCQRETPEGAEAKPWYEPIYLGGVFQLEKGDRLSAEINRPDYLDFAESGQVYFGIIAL

Broadly, the IC50 is the concentration at which inhibition is half-maximal. On to `COc1ccccc1C1CCCc2nc3ccc(-c4cnc(N5CCC(O)C(F)(F)C5)nc4)cn3c21` (centres unmarked) [AJ.4], for which the IC50 is less than 1000 nM.
With `COc1ccccc1C1CCCc2nc3ccc(-c4cnc(N5CCC(C)(O)CC5)nc4)cn3c21` (centres unmarked) [AJ.5], the IC50 is less than 1000 nM.
Consider `COc1ccccc1C1CCCc2nc3ccc(-c4cnc(N5CCN6C(=O)NCC6C5)nc4)cn3c21` (centres unmarked) [AJ.6], for which the half-maximal inhibitory concentration (IC50) is less than 1000 nM.
The figure for `COc1ccccc1C1CCCc2nc3ccc(-c4cnc(N5CCCOCC5)nc4)cn3c21` (centres unmarked) [AJ.7] is less than 1000 nM; for `COc1ccccc1C1CCCc2nc3ccc(-c4cnc(N5CCC6(CC5)CC(O)C6)nc4)cn3c21` (centres unmarked) [AJ.8] it is less than 1000 nM; for `OC[C@@H]1CCCN1c1ncc(-c2ccc3nc4n(c3n2)[C@@H](c2ccccc2)CC4)cn1` [AK.1] it is 1000 to 10000 nM.
Regarding `CS(=O)(=O)CCn1ccc(-c2ccc3nc4n(c3n2)[C@@H](c2ccccc2)CC4)cc1=O` [AK.2], the half-inhibitory concentration (IC50) is 10000 to 100000 nM.
In the case of `CC(C)(O)Cn1ccc(-c2ccc3nc4n(c3n2)[C@@H](c2ccccc2)CC4)cc1=O` [AK.3] it was 10000 to 100000 nM.
With `CC(O)c1ncc(-c2ccc3nc4n(c3n2)[C@@H](c2ccccc2)CC4)cn1` (some centres unmarked) [AL.1], the IC50 lay within 1000 to 10000 nM.
In the case of `OC(CC1CC1)c1ncc(-c2ccc3nc4n(c3n2)[C@@H](c2ccccc2)CC4)cn1` (some centres unmarked) [AL.2] it was 1000 to 10000 nM.
`OC(c1ncc(-c2ccc3nc4n(c3n2)[C@@H](c2ccccc2)CC4)cn1)C1CCOCC1` (some centres unmarked) [AL.3]: the concentration for half-maximal inhibition (IC50) was in the range of 1000 to 10000 nM.
The figure for `CC(O)(c1ncc(-c2ccc3nc4n(c3n2)[C@@H](c2ccccc2)CC4)cn1)C1CCOCC1` (some centres unmarked) [AL.4] is 1000 to 10000 nM; for `CC(O)(CC1CC1)c1ncc(-c2ccc3nc4n(c3n2)[C@@H](c2ccccc2)CC4)cn1` (some centres unmarked) [AL.5] it is 1000 to 10000 nM.
In the case of `COc1cccc([C@H]2CCc3nc4ccc(-c5cnc(N6CCN7C(=O)NC[C@@H]7C6)nc5)nc4n32)c1` [AM.1], the IC50 is less than 1000 nM.
As to `COc1cccc([C@H]2CCc3nc4ccc(-c5cnc(N6CCN(C(C)=O)[C@H](C)C6)nc5)nc4n32)c1` [AM.2, 1-((R)-4-(5-((R)-8-(3-methoxyphenyl)-7,8-dihydro-6H-pyrrolo[2′,1′:2,3]imidazo[4,5-b]pyridin-2-yl)pyrimidin-2-yl)-2-methylpiperazin-1-yl)ethanone], the 50% inhibitory concentration (IC50) was less than 1000 nM.
As to `COc1cccc([C@@H]2CCc3nc4ccc(-c5cnc(N6CCN7C(=O)NC[C@@H]7C6)nc5)nc4n32)c1` [AN.1], the IC50 was in the range of 10000 to 100000 nM.
Turning to `COc1ccccc1[C@H]1CCc2nc3ccc(-c4cnc(N5CCN6C(=O)NC[C@@H]6C5)nc4)nc3n21` [AO.1], the IC50 is less than 1000 nM.
Turning to `COc1ccccc1[C@H]1CCc2nc3ccc(-c4cnc(N5CCN6C(=O)NC[C@H]6C5)nc4)nc3n21` [AO.2], the IC50 is less than 1000 nM.
Turning to `COc1ccccc1[C@H]1CCc2nc3ccc(-c4cnc(N5CCC(O)CC5)nc4)nc3n21` [AO.3], the IC50 was less than 1000 nM.
In the case of `COc1ccccc1[C@H]1CCc2nc3ccc(-c4cnc(N5CCN(C(=O)CO)[C@H](C)C5)nc4)nc3n21` [AO.4], the IC50 is less than 1000 nM.
As to `COc1ccccc1[C@@H]1CCc2nc3ccc(-c4cnc(N5CCN6C(=O)NC[C@@H]6C5)nc4)nc3n21` [AP.1], the IC50 lay in the range of 1000 to 10000 nM.
`OC1CCC(Oc2cc(-c3ccc4nc5n(c4n3)[C@@H](c3ccccc3)CC5)ccn2)C1` (some centres unmarked) [AQ.1]: the IC50 is less than 1000 nM.
The figure for `OC1CCC(Oc2cc(-c3ccc4nc5n(c4n3)[C@@H](c3ccccc3)CC5)ccn2)CC1` (some centres unmarked) [AQ.2] is less than 1000 nM; for `c1ccc([C@H]2CCc3nc4ccc(-c5ccnc(OC6COC6)c5)nc4n32)cc1` [AQ.3] it is 1000 to 10000 nM; for `OC1CCCC(Oc2cc(-c3ccc4nc5n(c4n3)[C@@H](c3ccccc3)CC5)ccn2)C1` (some centres unmarked) [AQ.4] it is 1000 to 10000 nM.
Take `c1ccc([C@H]2CCc3nc4ccc(-c5ccnc(OCC6COC6)c5)nc4n32)cc1` [AQ.5]: the IC50 fell in the range of 1000 to 10000 nM.
`CN1CC[C@@H](Oc2cc(-c3ccc4nc5n(c4n3)[C@@H](c3ccccc3)CC5)ccn2)C1` [AQ.6]: the concentration for half-maximal inhibition (IC50) was 1000 to 10000 nM.
On to `OCCOc1cc(-c2ccc3nc4n(c3n2)[C@@H](c2ccccc2)CC4)ccn1` [AQ.7], for which the IC50 was in the range of 1000 to 10000 nM.
For `CN1CC[C@H](Oc2cc(-c3ccc4nc5n(c4n3)[C@@H](c3ccccc3)CC5)ccn2)C1` [AQ.8], the IC50 lay in the range of 1000 to 10000 nM.
Regarding `O[C@H]1CC[C@@H](Oc2cc(-c3ccc4nc5n(c4n3)[C@@H](c3ccccc3)CC5)ccn2)CC1` [AR.1], the half-inhibitory concentration (IC50) was 1000 to 10000 nM.
Regarding `c1ccc([C@H]2CCc3nc4ccc(-c5ccnc(OC6CCOC6)c5)nc4n32)cc1` (some centres unmarked) [AS.1], the IC50 was 1000 to 10000 nM.
As to `c1ccc([C@H]2CCc3nc4ccc(-c5ccnc(OC6CCCC6)c5)nc4n32)cc1` [AS.2], the half-maximal inhibitory concentration (IC50) fell in the range of 1000 to 10000 nM.
`c1ccc([C@H]2CCc3nc4ccc(-c5ccnc(OC6CCCCC6)c5)nc4n32)cc1` [AS.3]: the 50% inhibitory concentration (IC50) fell in the range of 1000 to 10000 nM.
On to `COC(=O)C1CCC(Oc2cc(-c3ccc4nc5n(c4n3)[C@@H](c3ccccc3)CC5)ccn2)CC1` (some centres unmarked) [AS.4], for which the 50% inhibitory concentration (IC50) was 1000 to 10000 nM.
In the case of `COC(=O)C1CCC(Oc2cc(-c3ccc4nc5n(c4n3)[C@@H](c3ccccc3)CC5)ccn2)C1` (some centres unmarked) [AS.5] it was 1000 to 10000 nM; in that of `N#C[C@@H]1CC[C@@H](Oc2cc(-c3ccc4nc5n(c4n3)[C@@H](c3ccccc3)CC5)ccn2)C1` [AS.7], 1000 to 10000 nM.
In the case of `c1ccc([C@H]2CCc3nc4ccc(-c5ccnc(OC6CCCNC6)c5)nc4n32)cc1` (some centres unmarked) [AT.1] it was 1000 to 10000 nM; in that of `c1ccc([C@H]2CCc3nc4ccc(-c5ccnc(O[C@@H]6CCNC6)c5)nc4n32)cc1` [AT.2], 1000 to 10000 nM.
For `c1ccc([C@H]2CCc3nc4ccc(-c5ccnc(OC6CCC67CCNC7)c5)nc4n32)cc1` (some centres unmarked) [AT.3], the IC50 lay within 1000 to 10000 nM.
As to `O=C1NC[C@@H]2CN(c3ncc(-c4ccc5nc6n(c5n4)C4(COC6)COc5ccccc54)cn3)CCN12` (some centres unmarked) [AU.1], the half-maximal inhibitory concentration (IC50) was less than 1000 nM.
Take `OC1CC(Nc2ncc(-c3ccc4nc5n(c4n3)C3(COC5)COc4ccccc43)cn2)C1` (centres unmarked) [AU.2]: the half-maximal inhibitory concentration (IC50) fell in the range of 1000 to 10000 nM.
For the compound `c1ccc2c(c1)OCC21COCc2nc3ccc(-c4cnc(NC5CCOC5)nc4)nc3n21` (centres unmarked) [AU.3], the half-inhibitory concentration (IC50) was in the range of 1000 to 10000 nM.
In the case of `OC1CCCN(c2ncc(-c3ccc4nc5n(c4n3)C3(COC5)COc4ccccc43)cn2)C1` (centres unmarked) [AU.4], the IC50 is less than 1000 nM.
Consider `CN1CCN(c2ncc(-c3ccc4nc5n(c4n3)C3(COC5)COc4ccccc43)cn2)CC1` (centres unmarked) [AU.5], for which the IC50 was 1000 to 10000 nM.
As to `OCC1CCCN(c2ncc(-c3ccc4nc5n(c4n3)C3(CCc4ccccc43)COC5)cn2)C1` (centres unmarked) [AV.1], the half-inhibitory concentration (IC50) is less than 1000 nM.
In the case of `O=C1NC[C@@H]2CN(c3ncc(-c4ccc5nc6n(c5n4)C4(CCc5ccccc54)COC6)cn3)CCN12` (some centres unmarked) [AV.2], the half-maximal inhibitory concentration (IC50) was less than 1000 nM.
For the compound `c1ccc2c(c1)CCC21COCc2nc3ccc(-c4cnc(N5CCCOCC5)nc4)nc3n21` (centres unmarked) [AV.3], the half-maximal inhibitory concentration (IC50) is less than 1000 nM.
With `OC1CCN(c2ncc(-c3ccc4nc5n(c4n3)C3(CCc4ccccc43)COC5)cn2)CC1(F)F` (centres unmarked) [AV.4], the 50% inhibitory concentration (IC50) was less than 1000 nM.
On to `CC(O)C(=O)N1CCN(c2ncc(-c3ccc4nc5n(c4n3)C3(CCc4ccccc43)COC5)cn2)CC1` (centres unmarked) [AV.5], for which the IC50 was less than 1000 nM.
For `O=C(CO)N1CCN(c2ncc(-c3ccc4nc5n(c4n3)C3(CCc4ccccc43)COC5)cn2)CC1` (centres unmarked) [AV.6], the IC50 is less than 1000 nM.
For the compound `OCC1(F)CCN(c2ncc(-c3ccc4nc5n(c4n3)C3(CCc4ccccc43)COC5)cn2)CC1` (centres unmarked) [AV.7], the IC50 is less than 1000 nM.
Take `c1ccc2c(c1)CCC21COCc2nc3ccc(-c4cnc(N5CCOCC5)nc4)nc3n21` (centres unmarked) [AV.8]: the 50% inhibitory concentration (IC50) is less than 1000 nM.
For the compound `OC1CCCN(c2ncc(-c3ccc4nc5n(c4n3)C3(CCc4ccccc43)COC5)cn2)CC1` (centres unmarked) [AV.9], the IC50 was less than 1000 nM.
As to `O=c1cc(-c2ccc3nc4n(c3n2)[C@@H](c2ccccc2)CC4)ccn1CC1CCC(F)(F)CC1` [AW.1], the IC50 fell in the range of 1000 to 10000 nM.
Regarding `COCCn1ccc(-c2ccc3nc4n(c3n2)[C@@H](c2ccccc2)CC4)cc1=O` [AW.2], the half-inhibitory concentration (IC50) lay within 1000 to 10000 nM.
Consider `O=c1cc(-c2ccc3nc4n(c3n2)[C@@H](c2ccccc2)CC4)ccn1CC1CCOCC1` [AW.3], for which the concentration for half-maximal inhibition (IC50) is 1000 to 10000 nM.
